Test results as given in patent US11905306B2 (priority 2021, dated 2024).

What was measured:
Toronto 2 SARS CoV-1 = test: organism not typed; assay type: cell-based; conditions: Vero C1008, 72 h, read-out: SARS-1 EC50 (μM) VeroE6
USA_WA1/2020 SARS CoV-2 = test: microbe, parasite or virus in culture; assay type: cell-based; conditions: Severe acute respiratory syndrome coronavirus 2, Vero C1008, 72 h, read-out: SARS-2 EC50 (μM) VeroE6
SARS-2 [1] = test: microbe, parasite or virus in culture; assay type: cell-based; conditions: Severe acute respiratory syndrome coronavirus 2, read-out: SARS-2 VU-EC50 (μM) (A549-hACE2)
SARS-2 [2] = system: SARS-2
in vitro = conditions: African green monkey

Structure (SMILES)	EC50 (Toronto 2 SARS CoV-1) [µM]	EC50 (USA_WA1/2020 SARS CoV-2) [µM]	EC50 (SARS-2 [1]) [µM]	SARS-2 VU-VTR @ 20 μM (A549-hACE2) (logs) (SARS-2 [2])	CC50 (in vitro) [nM]
CC(C)OC(=O)c1ccc(NC(=O)c2cccc(C#Cc3ccccn3)c2)cc1 [Compound 65, Isopropyl 4-(3-(pyridin-2-ylethynyl)benzamido)benzoate]	0.16	0.46	0.29	2.78	> 30000
O=C(Nc1ccc(C(=O)OCC2CC2)cc1)c1cccc(C#Cc2ccccn2)c1 [Compound 66, Cyclopropylmethyl 4-(3-(pyridin-2-ylethynyl)benzamido)benzoate]	0.49	0.83	0.46	1.73	> 30000
CC(C)n1nccc1-c1ccc(NC(=O)c2cccc(C#Cc3ccccn3)c2)cc1 [Compound 69, N-(4-(1-isopropyl-1H-pyrazol-5-yl)phenyl)-3-(pyridin-2-ylethynyl)benzamide]	0.24	0.45	0.22	3.3	> 30000
O=C(Nc1ccc(N2CCCCS2(=O)=O)cc1)c1cccc(C#Cc2ccccn2)c1 [Compound 70, N-(4-(1,1-dioxido-1,2-thiazinan-2-yl)phenyl)-3-(pyridin-2-ylethynyl)benzamide]	1.29	1.08	0.82	2.47	> 30000
CCOP(=O)(OCC)c1ccc(NC(=O)c2cccc(C#Cc3ccccn3)c2)cc1 [Compound 73, Diethyl (4-(3-(pyridin-2-ylethynyl)benzamido)phenyl)phosphonate]	0.18	0.45	0.003	2.93	> 30000
